Activity calls are given as the source filed them.
What was measured:
[1] = target: Protein Wnt-3a (Mus musculus, UniProt P27467); assay: antagonism of Wnt3a pathway luciferase reporter – Wnt-LIGHT cells, luminescence, selectivity assay for Gli-SUFU antagonist project, dose response (AID 651570); format: functional; conditions: read-out: IC50_Mean;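 further: Wnt-LIGHT reporter cells stimulated with conditioned medium from Wnt3a-producing cells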
[2] = nonselective StAR promoter luciferase inhibitors – cell-based, luminescence, luciferase reporter, counter-screen for LRH-1 inverse agonist project, dose response (AID 651969); format: functional
[3] = target: Nuclear receptor subfamily 5 group A member 2 (Homo sapiens, UniProt O00482); format: functional, cell-based;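 further: HEK293T cells transfected with LRH-1 and a StAR promoter luciferase reporter; potency for inhibitors that lower LRH-1 driven reporter light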
[4] = target: Steroidogenic factor 1 (Homo sapiens, UniProt Q13285); assay: Counterscreen for inverse agonists of the liver receptor homolog-1 (LRH-1; NR5A2): Luminescence-based cell-based high throughput dose response assay to identify inverse agonists of the Steroidogenic Factor 1 Nuclear Receptor (SF1; NR5A1).; format: functional
[5] = Luminescence Cell-Based Dose Response HTS to Identify Activators of Luciferase Translation or Activity in H4 […] Cells. [Related pubchem assays: 1829 (Project Summary), 1814 (Primary HTS)]; format: functional
[6] = target: T1, Caspase-3 (Homo sapiens, UniProt P42574); format: functional;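 further: Dose-response selectivity test against caspase-3 for candidate inhibitors of sentrin-specific proteases (SENPs)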
T1 sequence (P42574 whole entry): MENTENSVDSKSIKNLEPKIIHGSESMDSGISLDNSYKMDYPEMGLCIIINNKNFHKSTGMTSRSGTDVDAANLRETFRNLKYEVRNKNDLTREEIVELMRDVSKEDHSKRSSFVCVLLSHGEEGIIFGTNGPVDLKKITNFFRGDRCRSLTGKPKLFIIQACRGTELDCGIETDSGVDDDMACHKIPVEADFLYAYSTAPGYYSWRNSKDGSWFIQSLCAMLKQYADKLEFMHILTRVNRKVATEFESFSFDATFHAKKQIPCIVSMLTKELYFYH

[7] = target: T2, Sentrin-specific protease 7 (Homo sapiens, UniProt Q9BQF6); format: functional;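 further: Luminescence-based dose-response confirmation of ultra-high-throughput screening hits, measuring inhibition of SENP7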
T2 sequence (Q9BQF6 whole entry): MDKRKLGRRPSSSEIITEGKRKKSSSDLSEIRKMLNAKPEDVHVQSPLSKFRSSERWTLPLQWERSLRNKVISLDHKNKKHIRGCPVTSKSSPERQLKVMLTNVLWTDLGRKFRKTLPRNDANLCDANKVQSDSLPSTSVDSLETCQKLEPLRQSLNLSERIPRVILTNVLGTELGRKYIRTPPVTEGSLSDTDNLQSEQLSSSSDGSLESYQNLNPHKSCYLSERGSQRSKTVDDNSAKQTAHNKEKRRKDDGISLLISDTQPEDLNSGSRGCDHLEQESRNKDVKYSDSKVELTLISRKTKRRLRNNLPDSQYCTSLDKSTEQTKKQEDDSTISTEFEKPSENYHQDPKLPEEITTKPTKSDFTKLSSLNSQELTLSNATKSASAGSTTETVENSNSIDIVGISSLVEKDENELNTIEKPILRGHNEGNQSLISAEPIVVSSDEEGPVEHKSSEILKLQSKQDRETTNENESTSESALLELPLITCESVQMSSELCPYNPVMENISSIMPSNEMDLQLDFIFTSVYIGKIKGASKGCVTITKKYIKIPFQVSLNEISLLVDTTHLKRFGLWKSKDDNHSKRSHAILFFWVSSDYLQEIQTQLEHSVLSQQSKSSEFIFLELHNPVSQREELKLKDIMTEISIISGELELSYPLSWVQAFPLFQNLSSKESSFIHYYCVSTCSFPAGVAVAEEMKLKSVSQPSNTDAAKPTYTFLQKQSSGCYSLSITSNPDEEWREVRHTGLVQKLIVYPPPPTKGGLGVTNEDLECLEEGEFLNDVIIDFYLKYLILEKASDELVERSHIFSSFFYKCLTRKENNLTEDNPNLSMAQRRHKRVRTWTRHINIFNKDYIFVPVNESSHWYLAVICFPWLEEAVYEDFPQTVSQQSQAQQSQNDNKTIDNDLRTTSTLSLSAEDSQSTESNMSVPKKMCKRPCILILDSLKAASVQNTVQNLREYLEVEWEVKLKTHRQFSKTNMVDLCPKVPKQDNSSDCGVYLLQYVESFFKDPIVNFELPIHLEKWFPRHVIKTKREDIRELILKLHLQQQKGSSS

[8] = target: T3, Sentrin-specific protease 8 (Homo sapiens, UniProt Q96LD8); format: functional;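 further: luminescence read-out of SENP8 inhibition, dose-response confirmation following an ultra-high-throughput screen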
T3 sequence (Q96LD8 whole entry): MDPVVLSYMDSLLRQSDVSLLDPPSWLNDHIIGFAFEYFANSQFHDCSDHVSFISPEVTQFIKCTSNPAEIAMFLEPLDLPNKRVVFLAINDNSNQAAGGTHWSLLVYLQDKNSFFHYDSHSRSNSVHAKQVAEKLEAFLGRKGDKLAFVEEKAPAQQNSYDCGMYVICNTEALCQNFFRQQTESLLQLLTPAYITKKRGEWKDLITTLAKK

[9] = target: T4, Sentrin-specific protease 6 (Homo sapiens, UniProt Q9GZR1); format: functional;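 further: Luminescence-based dose-response confirmatory assay of SENP6 inhibition, following up an ultra-high-throughput screen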
T4 sequence (Q9GZR1 whole entry): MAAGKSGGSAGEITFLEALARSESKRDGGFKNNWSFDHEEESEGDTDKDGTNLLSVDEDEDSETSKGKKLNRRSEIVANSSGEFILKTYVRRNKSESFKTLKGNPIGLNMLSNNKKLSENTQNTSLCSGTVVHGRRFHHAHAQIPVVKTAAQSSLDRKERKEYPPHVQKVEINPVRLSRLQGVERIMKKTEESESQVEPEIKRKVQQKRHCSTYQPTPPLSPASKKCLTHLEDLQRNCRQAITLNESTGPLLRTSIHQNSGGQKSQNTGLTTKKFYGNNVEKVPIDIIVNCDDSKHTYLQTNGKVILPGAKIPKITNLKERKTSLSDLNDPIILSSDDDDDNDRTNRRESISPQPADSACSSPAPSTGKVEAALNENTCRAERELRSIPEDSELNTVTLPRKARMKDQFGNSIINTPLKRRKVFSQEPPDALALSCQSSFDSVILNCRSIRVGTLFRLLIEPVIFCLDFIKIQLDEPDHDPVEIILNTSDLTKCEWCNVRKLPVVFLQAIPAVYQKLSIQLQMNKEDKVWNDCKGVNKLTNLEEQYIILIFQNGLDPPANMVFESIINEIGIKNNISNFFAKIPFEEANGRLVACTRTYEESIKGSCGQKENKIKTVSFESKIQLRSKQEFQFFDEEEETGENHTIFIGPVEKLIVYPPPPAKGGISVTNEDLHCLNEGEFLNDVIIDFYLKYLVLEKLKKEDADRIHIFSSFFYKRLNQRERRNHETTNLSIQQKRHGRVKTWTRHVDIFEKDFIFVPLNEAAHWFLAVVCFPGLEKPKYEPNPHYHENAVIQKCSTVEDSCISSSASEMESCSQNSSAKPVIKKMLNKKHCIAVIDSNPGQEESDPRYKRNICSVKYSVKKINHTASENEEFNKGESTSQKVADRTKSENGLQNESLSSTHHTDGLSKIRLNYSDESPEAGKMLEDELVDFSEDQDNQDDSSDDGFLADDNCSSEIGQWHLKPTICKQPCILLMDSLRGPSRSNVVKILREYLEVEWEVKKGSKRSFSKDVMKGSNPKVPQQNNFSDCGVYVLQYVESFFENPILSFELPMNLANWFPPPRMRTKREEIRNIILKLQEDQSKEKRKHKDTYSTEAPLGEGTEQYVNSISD

[10] = tested on: H4; assay: Luminescence Cell-Based Dose Response HTS to Identify Activators of 5'UTR Stem-Loop Driven Prion Protein mRNA Translation in H4 Neuroglioblastoma Cells. [Related pubchem assays: 1829 (Project Summary), 1814 (Primary HTS)]; format: functional; conditions: Homo sapiens
[11] = tested on: Vero; assay: cells; format: functional; conditions: Chlorocebus sabaeus
[12] = tested on: BJ; assay: BJ-TERT-LT-ST fibroblast viability loss – cell-based, RAS-independent, luminescence, dose response (AID 1935); format: functional; conditions: Homo sapiens;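 further: BJ fibroblasts immortalized with TERT plus LT and ST oncogenes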
[13] = tested on: BJ; assay: growth inhibition of engineered Ras-driven BJ cells – cell-based, alamar blue fluorescence, cherrypicked samples, dose response (AID 2631); format: functional; conditions: Homo sapiens;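 further: confirmatory dose-response assay in RAS-dependent BJ fibroblasts engineered with TERT, LT and ST, with cytotoxicity read by fluorescence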
[14] = tested on: BJ; assay: cells; format: functional, cell-based; conditions: Homo sapiens
[15] = DRD fibroblast viability loss – cell-based, non-viral oncogenic, luminescence, dose response (AID 1934); format: functional; conditions: Homo sapiens
[16] = tested on: BJ; assay: BJ-TERT fibroblast viability loss – cell-based, RAS-independent, luminescence, dose response (AID 1933); format: functional; conditions: Homo sapiens
[17] = target: T5, Sentrin-specific protease 1 (Homo sapiens, UniProt Q9P0U3); assay: SENP1 catalytic domain blockers, concentration series – biochemical, kinetic FRET, dose response (AID 651697); format: functional; conditions: read-out: IC50_Mean
T5 sequence (Q9P0U3 whole entry): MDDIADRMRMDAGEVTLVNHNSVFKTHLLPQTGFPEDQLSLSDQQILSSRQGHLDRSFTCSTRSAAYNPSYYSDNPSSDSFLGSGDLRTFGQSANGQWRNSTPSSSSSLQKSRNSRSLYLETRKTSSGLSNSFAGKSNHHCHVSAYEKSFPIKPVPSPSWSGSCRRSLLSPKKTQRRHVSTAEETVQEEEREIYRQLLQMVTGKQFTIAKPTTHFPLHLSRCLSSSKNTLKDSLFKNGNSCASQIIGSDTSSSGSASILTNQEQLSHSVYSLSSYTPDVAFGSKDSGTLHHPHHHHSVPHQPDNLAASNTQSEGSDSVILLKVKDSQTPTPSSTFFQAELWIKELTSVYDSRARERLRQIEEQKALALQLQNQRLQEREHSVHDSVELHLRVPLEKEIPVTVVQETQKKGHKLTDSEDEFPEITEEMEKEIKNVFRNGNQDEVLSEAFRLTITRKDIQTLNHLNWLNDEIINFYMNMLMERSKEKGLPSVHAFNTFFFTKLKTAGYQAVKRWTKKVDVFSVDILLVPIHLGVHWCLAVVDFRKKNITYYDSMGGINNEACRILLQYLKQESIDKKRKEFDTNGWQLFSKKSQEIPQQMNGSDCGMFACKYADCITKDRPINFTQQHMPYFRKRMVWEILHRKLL

[18] = target: T5, Sentrin-specific protease 1; assay: Dose response confirmation of small molecule inhibitors of the catalytic domain of the SUMO protease, SENP1 in a FRET assay.; format: functional; conditions: read-out: IC50_Mean

Sequence of Protein Wnt-3a (P27467 whole entry): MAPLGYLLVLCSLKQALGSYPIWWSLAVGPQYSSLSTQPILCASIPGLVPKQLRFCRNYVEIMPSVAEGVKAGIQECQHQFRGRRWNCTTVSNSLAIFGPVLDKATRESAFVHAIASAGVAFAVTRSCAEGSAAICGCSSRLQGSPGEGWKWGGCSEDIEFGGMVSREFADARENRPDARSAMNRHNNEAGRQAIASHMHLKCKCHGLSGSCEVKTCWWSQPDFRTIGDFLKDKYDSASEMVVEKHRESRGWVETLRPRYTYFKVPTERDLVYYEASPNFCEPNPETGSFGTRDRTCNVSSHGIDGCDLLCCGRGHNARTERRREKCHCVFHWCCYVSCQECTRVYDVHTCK
Sequence of Steroidogenic factor 1 (Q13285 whole entry): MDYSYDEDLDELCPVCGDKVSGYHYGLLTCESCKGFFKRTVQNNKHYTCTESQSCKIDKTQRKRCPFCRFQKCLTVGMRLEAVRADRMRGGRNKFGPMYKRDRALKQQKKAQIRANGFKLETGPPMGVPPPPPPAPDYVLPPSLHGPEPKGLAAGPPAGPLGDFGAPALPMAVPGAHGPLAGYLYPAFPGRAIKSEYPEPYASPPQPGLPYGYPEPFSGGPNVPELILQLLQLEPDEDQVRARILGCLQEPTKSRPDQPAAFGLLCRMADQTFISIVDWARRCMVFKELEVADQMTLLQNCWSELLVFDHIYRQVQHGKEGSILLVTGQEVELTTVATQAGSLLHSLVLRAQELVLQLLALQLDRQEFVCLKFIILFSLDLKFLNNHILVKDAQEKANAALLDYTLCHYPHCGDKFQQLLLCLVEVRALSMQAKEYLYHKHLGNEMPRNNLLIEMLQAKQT
Sequence of Nuclear receptor subfamily 5 group A member 2 (O00482 whole entry): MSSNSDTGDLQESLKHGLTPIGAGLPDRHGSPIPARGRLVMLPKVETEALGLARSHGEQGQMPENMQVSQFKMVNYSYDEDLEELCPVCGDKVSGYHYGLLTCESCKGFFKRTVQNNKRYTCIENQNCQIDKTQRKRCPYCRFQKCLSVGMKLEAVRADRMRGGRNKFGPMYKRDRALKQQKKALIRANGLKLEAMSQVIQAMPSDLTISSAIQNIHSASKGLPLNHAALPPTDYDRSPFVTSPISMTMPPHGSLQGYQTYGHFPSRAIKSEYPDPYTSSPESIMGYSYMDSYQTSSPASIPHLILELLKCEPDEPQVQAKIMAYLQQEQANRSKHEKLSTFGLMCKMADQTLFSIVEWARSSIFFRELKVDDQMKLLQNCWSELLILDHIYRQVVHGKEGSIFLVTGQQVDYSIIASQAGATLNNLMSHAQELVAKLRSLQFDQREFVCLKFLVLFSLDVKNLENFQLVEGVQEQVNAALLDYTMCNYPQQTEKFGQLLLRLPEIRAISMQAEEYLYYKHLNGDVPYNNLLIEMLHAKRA

Q: Which IC50 [1] does the source give for `Clc1ccc(-c2c[n+](-c3ccccc3)c3n2CCS3)cc1` here?
A: The IC50 was 22.5 µM (inactive).

Q: For `COC(=O)c1ccc(NC(=O)CN2CCN(c3ccc(Cl)cc3)CC2)cc1`, which IC50 [2] is on record?
A: Its IC50 is 35.9 µM (inactive).

Q: What about the IC50 [3] of the same molecule?
A: Its IC50 is 35.9 µM (inactive).

Q: What about the IC50 [4] of the same molecule?
A: Its IC50 is 30.7 µM (inactive).

Q: With `O=[N+]([O-])c1ccc(N2CCN(C(=S)NCc3ccc(Cl)cc3)CC2)cc1` as the molecule, how does the IC50 [1] read?
A: The IC50 was 5.08 µM (active).

Q: What does the source list for `Clc1nnc(N/N=C/c2ccccc2)c2ccccc12`?
A: EC50 [5]: 0.694 µM (active); IC50 [6]: 6.38 µM (active); IC50 [7]: 2.83 µM (active); IC50 [8]: 8.2 µM (active); IC50 [9]: 5.57 µM (active); EC50 [10]: 5.27 µM (active)

Q: Which CC50 [11] does the source give for `COc1ccc(OC)c(Nc2nc(N)nc(CCl)n2)c1` here?
A: The CC50 was 7.93 µM (active).

Q: What about the EC50 [12] of the same molecule?
A: The EC50 was > 150 µM (inconclusive).

Q: And the EC50 [13]?
A: The EC50 was 15.7 µM (active).

Q: And the EC50 [14]?
A: The EC50 was 4.66 µM (inconclusive).

Q: What about the EC50 [15] of the same molecule?
A: Its EC50 is 2.16 µM (active).

Q: And the EC50 [16]?
A: Its EC50 is 0.258 µM (active).

Q: For `Cc1ccc2cc3c(N)c(C(=O)N4CCOCC4)sc3nc2c1`, which IC50 [17] is on record?
A: The IC50 was 35.9 µM (inactive).

Q: And the IC50 [18]?
A: The IC50 was 30.6 µM (inactive).
